Assays:
[1] = molecular target: T1, Hs-piRMT (Homo sapiens, UniProt Q5T8I9); conditions: Mn2+ as metal cofactor; cited from earlier work
[2] = molecular target: T2, Dm-piRMT (Drosophila melanogaster, UniProt Q7K175); test: Metal ion requirement of piRMT methylation of ssRNA miR173.1 (NaIO4/β-elimination, PAG autoradiography); format: biochemical; set-up: modification efficiency towards RNA substrates with different 3′ terminal nucleotides (U, C, A, G): dose or concentration left out as unconfirmed
T2 sequence (Q7K175 1-391): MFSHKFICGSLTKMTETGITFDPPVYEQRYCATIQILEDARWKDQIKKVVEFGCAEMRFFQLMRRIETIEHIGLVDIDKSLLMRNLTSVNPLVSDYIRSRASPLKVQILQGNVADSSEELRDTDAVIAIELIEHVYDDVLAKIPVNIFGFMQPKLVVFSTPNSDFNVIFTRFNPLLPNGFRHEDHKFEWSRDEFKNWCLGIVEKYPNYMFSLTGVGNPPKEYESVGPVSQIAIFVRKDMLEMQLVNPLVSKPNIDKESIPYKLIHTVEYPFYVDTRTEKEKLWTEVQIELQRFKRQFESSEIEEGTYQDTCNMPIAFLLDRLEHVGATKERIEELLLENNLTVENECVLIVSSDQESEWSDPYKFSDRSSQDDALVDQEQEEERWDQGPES
Method: To test the requirement of different metal cofactors, 20 μl reaction volumes, containing reaction buffer [10 mM Tris-HCl (pH 7.4), 50 mM NaCl, 0.1 mg/ml BSA, 5% (v/v) glycerol and 0.05 u/μl RiboLock (Thermo Scientific)], 0.2 μM ^32P-labelled miR173.1 (5′-[…]-3′, 22 nt) (SEQ ID NO: 3), 0.1 mM AdoMet, […] After 30 min of incubation at 37° C., the degree of modification was determined by NaIO4/β-elimination reaction, during which RNA was treated with 0.2 mM NaIO4 in borax/boric acid buffer [0.06 M, pH 8.6] for 15 min followed by 75 min incubation in borax/boric acid buffer II [0.06 M pH 9.6] at 42° C. Reaction samples were analyzed in 13% denaturing polyacrylamide gel (PAG) and autoradiographed. Fractions of methylated RNA, represented by bands with lower electrophoretic mobility, were evaluated using Multi Gauge version 3.0 software (Fujifilm). The depletion of metal ions by EDTA in the reaction mixture, together with the sample without any metal cofactor added, further confirms that the effective piRMT methylation is due to Co^2+ and Co^3+ ions. B. Column-diagram of RNA methylation efficiency with different metal cofactors. Results are average of duplicate experiments±S.D.
B. Column-diagram of modification efficiency of miR173.1 with different 3′ terminal nucleotides. Results are average of two experiments±S.D.

[3] = molecular target: T1, Hs-piRMT; test: as above; format: biochemical; conditions: 10 mM metal ion, 1 μM piRMT, 0.2 μM miR173.1, 0.1 mM AdoMet, 30 min, 37° C.
Method: To test the requirement of different metal cofactors, 20 μl reaction volumes, containing reaction buffer [10 mM Tris-HCl (pH 7.4), 50 mM NaCl, 0.1 mg/ml BSA, 5% (v/v) glycerol and 0.05 u/μl RiboLock (Thermo Scientific)], 0.2 μM ^32P-labelled miR173.1 (5′-[…]-3′, 22 nt) (SEQ ID NO: 3), 0.1 mM AdoMet, 10 mM metal ion and 1 μM of piRMT proteins' were mixed. After 30 min of incubation at 37° C., the degree of modification was determined by NaIO4/β-elimination reaction, during which RNA was treated with 0.2 mM NaIO4 in borax/boric acid buffer [0.06 M, pH 8.6] for 15 min followed by 75 min incubation in borax/boric acid buffer II [0.06 M pH 9.6] at 42° C. Reaction samples were analyzed in 13% denaturing polyacrylamide gel (PAG) and autoradiographed. Fractions of methylated RNA, represented by bands with lower electrophoretic mobility, were evaluated using Multi Gauge version 3.0 software (Fujifilm). The depletion of metal ions by EDTA in the reaction mixture, together with the sample without any metal cofactor added, further confirms that the effective piRMT methylation is due to Co^2+ and Co^3+ ions. B. Column-diagram of RNA methylation efficiency with different metal cofactors. Results are average of duplicate experiments±S.D.

T1 sequence (Q5T8I9 whole entry): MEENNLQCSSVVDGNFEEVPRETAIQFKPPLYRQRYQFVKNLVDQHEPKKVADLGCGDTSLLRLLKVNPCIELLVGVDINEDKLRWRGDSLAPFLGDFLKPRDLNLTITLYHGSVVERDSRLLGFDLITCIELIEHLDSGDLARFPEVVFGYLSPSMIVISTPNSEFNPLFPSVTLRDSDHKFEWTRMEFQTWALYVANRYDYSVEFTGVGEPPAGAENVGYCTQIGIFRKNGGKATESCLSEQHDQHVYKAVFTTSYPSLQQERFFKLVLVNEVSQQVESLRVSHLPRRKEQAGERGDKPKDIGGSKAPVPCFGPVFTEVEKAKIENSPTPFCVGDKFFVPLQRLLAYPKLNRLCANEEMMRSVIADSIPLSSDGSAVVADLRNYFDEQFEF

Row | degree of methylation of ssRNA substrate with metal ion cofactor ([2]; 10 mM metal ion, 1 μM piRMT, 0.2 μM miR173.1, 0.1 mM AdoMet, 30 min, 37° C.) | modification efficiency towards RNA substrates with different 3′ terminal nucleotides (U, C, A, G) ([2]; Co2+ as metal cofactor, miR173.1 variants) | degree of methylation of ssRNA substrate with metal ion cofactor [3] | Compound | RNA modification level in presence of metal ion [1]
1 | – | – | – | [Mn+2] [Mn^2+] | seemingly low levels
2 | full methylation | equally effective modification | full methylation | [Co+2] [Co^2+] | –
